Like-named read-outs stand apart in the source and are kept apart here. Starred links: 1 amine or outer side, 2 acyl side, 3 side chain; linkers in the order of their positions; H or OH if unused. Positions of bridges follow the written chain, without caps; N, C: chain ends. Non-standard residues stand in square brackets, D forms with d. Residues, ends and D or L forms follow the SMILES beside them. ξ: configuration not given here. *: point of attachment. Bip(4'-NH) = O=C([C@H](Cc1ccc(-c2ccc(N[*:3])cc2)cc1)N[*:1])[*:2]; Indazole3carbonyl(1-CH2COOH) = O=C(O)Cn1nc(C(=O)*)c2ccccc21; Bip(4'-COOH) = N[C@@H](Cc1ccc(-c2ccc(C(=O)O)cc2)cc1)C(=O)O; Bip(4'-NHAc) = CC(=O)Nc1ccc(-c2ccc(C[C@H](N)C(=O)O)cc2)cc1; Ala(imidazol-2-yl) = N[C@@H](Cc1ncc[nH]1)C(=O)O; dArg(ω-Bn) = N=C(NCCC[C@@H](N)C(=O)O)NCc1ccccc1; Ala(morpholin-4-yl) = N[C@@H](CN1CCOCC1)C(=O)O; Phe(3-CONH2) = NC(=O)c1cccc(C[C@H](N)C(=O)O)c1; Bip = N[C@@H](Cc1ccc(-c2ccccc2)cc1)C(=O)O; 2Pal = N[C@@H](Cc1ccccn1)C(=O)O; 2Thi = N[C@@H](Cc1cccs1)C(=O)O; Cha = N[C@@H](CC1CCCCC1)C(=O)O; Chg = N[C@H](C(=O)O)C1CCCCC1; ξAze = O=C(O)C1CCN1; Sar = CNCC(=O)O
Biological target: TNFα (Homo sapiens, UniProt P01375)
Sequence (P01375 77-233 limits assumed): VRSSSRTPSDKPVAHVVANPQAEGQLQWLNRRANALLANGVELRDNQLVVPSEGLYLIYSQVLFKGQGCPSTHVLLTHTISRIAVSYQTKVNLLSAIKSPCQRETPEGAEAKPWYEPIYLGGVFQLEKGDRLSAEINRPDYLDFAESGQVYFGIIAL
Assay: TNF-Induced HEK-Blue Assay
Format: cell-based
[1] = HEK-Blue-CD40L cells, NF-kB-driven secreted alkaline phosphatase reporter, TNFα 0.5 ng/ml, 18 h, read-out: TNF induced HEK-Blue assay IC50 value

With `CC(=O)Nc1ccc(-c2ccc(C[C@@H]3NC(=O)[C@H](Cc4ccc(-c5ccccc5)cc4)NC(=O)[C@H](CN4CCOCC4)NC(=O)CSC[C@@H](C(=O)NCC(N)=O)NC(=O)[C@H](CC(C)C)NC(=O)[C@H](Cc4cccs4)NC(=O)[C@H](C4CCCCC4)NC(=O)[C@@H]4CCCN4C(=O)[C@H](C(C)C)NC(=O)[C@@H](CCCNC(=N)N)NC(=O)[C@H](CC(=O)O)NC(=O)[C@H](Cc4ccccn4)NC(=O)CN(C)C3=O)cc2)cc1` [Example 452] ({CH2CO}-[Ala(morpholin-4-yl)][Bip][Bip(4'-NHAc)][Sar][2Pal]D[dR]VP[Chg][2Thi]LCG-NH2; thioether N-13) the IC50 [1] was 50 to 200 nM.
For `CC(=O)Nc1ccc(-c2ccc(C[C@@H]3NC(=O)[C@H](Cc4ccc(-c5ccc(C(=O)O)cc5)cc4)NC(=O)[C@H](CN4CCOCC4)NC(=O)CSC[C@@H](C(=O)NCC(N)=O)NC(=O)[C@H](CC(C)C)NC(=O)[C@H](Cc4cccs4)NC(=O)[C@H](C(C)C)NC(=O)[C@@H]4CCCN4C(=O)[C@H](C(C)C)NC(=O)[C@@H](CCCNC(=N)N)NC(=O)[C@H](CC(=O)O)NC(=O)[C@H](Cc4cnc[nH]4)NC(=O)CN(C)C3=O)cc2)cc1` [Example 453] ({CH2CO}-[Ala(morpholin-4-yl)][Bip(4'-COOH)][Bip(4'-NHAc)][Sar]HD[dR]VPV[2Thi]LCG-NH2; thioether N-13), the IC50 [1] was less than 50 nM.
With `CC(=O)Nc1ccc(-c2ccc(C[C@@H]3NC(=O)[C@H](Cc4ccc(-c5ccccc5)cc4)NC(=O)[C@H](CN4CCOCC4)NC(=O)CSC[C@@H](C(=O)NCC(N)=O)NC(=O)[C@H](CC(C)C)NC(=O)[C@H](Cc4ccccc4)NC(=O)[C@H](C4CCCCC4)NC(=O)[C@@H]4CCCN4C(=O)[C@H](C(C)C)NC(=O)[C@@H](CCCNC(=N)N)NC(=O)[C@H](CC(=O)O)NC(=O)[C@H](Cc4ccccn4)NC(=O)CN(C)C3=O)cc2)cc1` [Example 454] ({CH2CO}-[Ala(morpholin-4-yl)][Bip][Bip(4'-NHAc)][Sar][2Pal]D[dR]VP[Chg]FLCG-NH2; thioether N-13) the IC50 [1] was less than 50 nM.
In the case of `CC(=O)Nc1ccc(-c2ccc(C[C@@H]3NC(=O)[C@H](Cc4ccc(-c5ccccc5)cc4)NC(=O)[C@H](CN4CCOCC4)NC(=O)CSC[C@@H](C(=O)NCC(N)=O)NC(=O)[C@H](CC(C)C)NC(=O)[C@H](Cc4cccc(C(N)=O)c4)NC(=O)[C@H](C(C)C)NC(=O)[C@@H]4CCCN4C(=O)[C@H](C(C)C)NC(=O)[C@@H](CCCNC(=N)N)NC(=O)[C@H](CC(=O)O)NC(=O)[C@H](Cc4ccccc4)NC(=O)CN(C)C3=O)cc2)cc1` [Example 455] ({CH2CO}-[Ala(morpholin-4-yl)][Bip][Bip(4'-NHAc)][Sar]FD[dR]VPV[Phe(3-CONH2)]LCG-NH2; thioether N-13), the IC50 [1] is reported as 50 to 200 nM.
Molecule `CC(=O)Nc1ccc(-c2ccc(C[C@@H]3NC(=O)[C@H](Cc4ccc(-c5ccccc5)cc4)NC(=O)[C@H](CN4CCOCC4)NC(=O)CSC[C@@H](C(=O)NCC(N)=O)NC(=O)[C@H](CC(C)C)NC(=O)[C@H](Cc4cccc(C(N)=O)c4)NC(=O)[C@H](C(C)C)NC(=O)[C@@H]4CCCN4C(=O)[C@H](C(C)C)NC(=O)[C@@H](CCCNC(=N)N)NC(=O)[C@H](CC(=O)O)NC(=O)[C@H](Cc4ccc(O)cc4)NC(=O)CN(C)C3=O)cc2)cc1` [Example 456] ({CH2CO}-[Ala(morpholin-4-yl)][Bip][Bip(4'-NHAc)][Sar]YD[dR]VPV[Phe(3-CONH2)]LCG-NH2; thioether N-13) has an IC50 [1] of 50 to 200 nM.
`CC(=O)Nc1ccc(-c2ccc(C[C@@H]3NC(=O)[C@H](Cc4ccc(-c5ccc(C(=O)O)cc5)cc4)NC(=O)[C@H](CN4CCOCC4)NC(=O)CSC[C@@H](C(=O)NCC(N)=O)NC(=O)[C@H](CC(C)C)NC(=O)[C@H](Cc4cccc(C(N)=O)c4)NC(=O)[C@H](C(C)C)NC(=O)[C@@H]4CCCN4C(=O)[C@H](C(C)C)NC(=O)[C@@H](CCCNC(=N)N)NC(=O)[C@H](CC(=O)O)NC(=O)[C@H](Cc4ccc(O)cc4)NC(=O)CN(C)C3=O)cc2)cc1` [Example 457] ({CH2CO}-[Ala(morpholin-4-yl)][Bip(4'-COOH)][Bip(4'-NHAc)][Sar]YD[dR]VPV[Phe(3-CONH2)]LCG-NH2; thioether N-13) was tested, and the IC50 [1] was less than 50 nM.
For `CC(=O)Nc1ccc(-c2ccc(C[C@@H]3NC(=O)[C@H](Cc4ccc(-c5ccc(C(=O)O)cc5)cc4)NC(=O)[C@H](CN4CCOCC4)NC(=O)CSC[C@@H](C(=O)NCC(N)=O)NC(=O)[C@H](CC(C)C)NC(=O)[C@H](Cc4cccc(C(N)=O)c4)NC(=O)[C@H](C(C)C)NC(=O)[C@@H]4CCCN4C(=O)[C@H](C(C)C)NC(=O)[C@@H](CCCNC(=N)N)NC(=O)[C@H](CC(=O)O)NC(=O)[C@H](Cc4ccccc4)NC(=O)CN(C)C3=O)cc2)cc1` [Example 458] ({CH2CO}-[Ala(morpholin-4-yl)][Bip(4'-COOH)][Bip(4'-NHAc)][Sar]FD[dR]VPV[Phe(3-CONH2)]LCG-NH2; thioether N-13), the IC50 [1] was less than 50 nM.
`CC(=O)Nc1ccc(-c2ccc(C[C@@H]3NC(=O)[C@H](Cc4ccc(-c5ccccc5)cc4)NC(=O)[C@H](CN4CCOCC4)NC(=O)CSC[C@@H](C(=O)NCC(N)=O)NC(=O)[C@H](CC(C)C)NC(=O)[C@H](Cc4cccc(C(N)=O)c4)NC(=O)[C@H](C4CCCCC4)NC(=O)[C@@H]4CCCN4C(=O)[C@H](C(C)C)NC(=O)[C@@H](CCCNC(=N)N)NC(=O)[C@H](CC(=O)O)NC(=O)[C@H](Cc4ccccc4)NC(=O)CN(C)C3=O)cc2)cc1` [Example 459] ({CH2CO}-[Ala(morpholin-4-yl)][Bip][Bip(4'-NHAc)][Sar]FD[dR]VP[Chg][Phe(3-CONH2)]LCG-NH2; thioether N-13) showed an IC50 [1] of 50 to 200 nM.
Molecule `CC(=O)Nc1ccc(-c2ccc(C[C@@H]3NC(=O)[C@H](Cc4ccc(-c5ccccc5)cc4)NC(=O)[C@H](CN4CCOCC4)NC(=O)CSC[C@@H](C(=O)NCC(N)=O)NC(=O)[C@H](CC(C)C)NC(=O)[C@H](Cc4cccc(C(N)=O)c4)NC(=O)[C@H](C4CCCCC4)NC(=O)[C@@H]4CCCN4C(=O)[C@H](C(C)C)NC(=O)[C@@H](CCCNC(=N)N)NC(=O)[C@H](CC(=O)O)NC(=O)[C@H](Cc4ccc(O)cc4)NC(=O)CN(C)C3=O)cc2)cc1` [Example 460] ({CH2CO}-[Ala(morpholin-4-yl)][Bip][Bip(4'-NHAc)][Sar]YD[dR]VP[Chg][Phe(3-CONH2)]LCG-NH2; thioether N-13) has an IC50 of less than 50 nM.
In the case of `CC(=O)Nc1ccc(-c2ccc(C[C@@H]3NC(=O)[C@H](Cc4ccc(-c5ccccc5)cc4)NC(=O)[C@H](CN4CCOCC4)NC(=O)CSC[C@@H](C(=O)NCC(N)=O)NC(=O)[C@H](CC(C)C)NC(=O)[C@H](Cc4ncc[nH]4)NC(=O)[C@H](C(C)C)NC(=O)[C@@H]4CCCN4C(=O)[C@H](C(C)C)NC(=O)[C@@H](CCCNC(=N)N)NC(=O)[C@H](CC(=O)O)NC(=O)[C@H](Cc4cccs4)NC(=O)CN(C)C3=O)cc2)cc1` [Example 461] ({CH2CO}-[Ala(morpholin-4-yl)][Bip][Bip(4'-NHAc)][Sar][2Thi]D[dR]VPV[Ala(imidazol-2-yl)]LCG-NH2; thioether N-13), the IC50 [1] is reported as less than 50 nM.
For `CC(=O)Nc1ccc(-c2ccc(C[C@@H]3NC(=O)[C@H](Cc4ccc(-c5ccc(C(=O)O)cc5)cc4)NC(=O)[C@H](CN4CCOCC4)NC(=O)CSC[C@@H](C(=O)NCC(N)=O)NC(=O)[C@H](CC(C)C)NC(=O)[C@H](Cc4ncc[nH]4)NC(=O)[C@H](C(C)C)NC(=O)[C@@H]4CCCN4C(=O)[C@H](C(C)C)NC(=O)[C@@H](CCCNC(=N)N)NC(=O)[C@H](CC(=O)O)NC(=O)[C@H](Cc4cccs4)NC(=O)CN(C)C3=O)cc2)cc1` [Example 462] ({CH2CO}-[Ala(morpholin-4-yl)][Bip(4'-COOH)][Bip(4'-NHAc)][Sar][2Thi]D[dR]VPV[Ala(imidazol-2-yl)]LCG-NH2; thioether N-13), the IC50 [1] was less than 50 nM.
For `CC(=O)Nc1ccc(-c2ccc(C[C@@H]3NC(=O)[C@H](Cc4ccc(-c5ccccc5)cc4)NC(=O)[C@H](CN4CCOCC4)NC(=O)CSC[C@@H](C(=O)NCC(N)=O)NC(=O)[C@H](CC(C)C)NC(=O)[C@H](Cc4ncc[nH]4)NC(=O)[C@H](C4CCCCC4)NC(=O)[C@@H]4CCCN4C(=O)[C@H](C(C)C)NC(=O)[C@@H](CCCNC(=N)N)NC(=O)[C@H](CC(=O)O)NC(=O)[C@H](Cc4cccs4)NC(=O)CN(C)C3=O)cc2)cc1` [Example 463] ({CH2CO}-[Ala(morpholin-4-yl)][Bip][Bip(4'-NHAc)][Sar][2Thi]D[dR]VP[Chg][Ala(imidazol-2-yl)]LCG-NH2; thioether N-13), the IC50 [1] was 50 to 200 nM.
In the case of `CC[C@H](C)[C@@H]1NC(=O)[C@@H]2CCCN2C(=O)[C@H](C(C)C)NC(=O)[C@@H](CCCNC(=N)N)NC(=O)[C@H](CC(=O)O)NC(=O)[C@H](Cc2ccccn2)NC(=O)CN(C)C(=O)[C@H](Cc2ccc(-c3ccc(NC(C)=O)cc3)cc2)NC(=O)[C@H](Cc2ccc(-c3ccccc3)cc2)NC(=O)[C@H](CN2CCOCC2)NC(=O)CSC[C@@H](C(=O)NCC(N)=O)NC(=O)[C@H](CC(C)C)NC(=O)[C@H](Cc2ncc[nH]2)NC1=O` [Example 464] ({CH2CO}-[Ala(morpholin-4-yl)][Bip][Bip(4'-NHAc)][Sar][2Pal]D[dR]VPI[Ala(imidazol-2-yl)]LCG-NH2; thioether N-13), the IC50 [1] is reported as less than 50 nM.
`CC(=O)Nc1ccc(-c2ccc(C[C@@H]3NC(=O)[C@H](Cc4ccc(-c5ccccc5)cc4)NC(=O)[C@H](CC4CCCCC4)NC(=O)CSC[C@@H](C(=O)NCC(N)=O)NC(=O)[C@H](CC(C)C)NC(=O)[C@H](Cc4ncc[nH]4)NC(=O)[C@H](C(C)C)NC(=O)C4CCN4C(=O)[C@H](C(C)C)NC(=O)[C@@H](CCCNC(=N)N)NC(=O)[C@H](CC(=O)O)NC(=O)[C@@H]4CCCN4C(=O)CN(C)C3=O)cc2)cc1` (stereo partly drawn) [Example 466] ({CH2CO}-[Cha][Bip][Bip(4'-NHAc)][Sar]PD[dR]V[ξAze]V[Ala(imidazol-2-yl)]LCG-NH2; thioether N-13) showed an IC50 [1] of less than 50 nM.
With `CC(C)C[C@@H]1NC(=O)[C@H](CCCNC(=N)N)NC(=O)[C@H](C(C)C)NC(=O)[C@@H]2CCCN2C(=O)[C@H](C(C)C)NC(=O)[C@@H](CCCNC(=N)NCc2ccccc2)NC(=O)[C@H](CC(=O)O)NC(=O)[C@@H]2CCCN2C(=O)CN(C)C(=O)[C@H](Cc2ccc(-c3ccc(NC(=O)c4nn(CC(=O)O)c5ccccc45)cc3)cc2)NC(=O)[C@H](Cc2ccc(-c3ccccc3)cc2)NC(=O)[C@H](CN2CCOCC2)NC(=O)CSC[C@@H](C(=O)NCC(N)=O)NC1=O` [Example 467] ({CH2CO}-[Ala(morpholin-4-yl)][Bip][Bip(4'-NH)](Indazole3carbonyl(1-CH2COOH))[Sar]PD[dArg(ω-Bn)]VPVRLCG-NH2; thioether N-13) the IC50 was less than 50 nM.
